In patent US9388126B2, “Sigma receptor ligands and methods of modulating cellular protein homeostasis using same” (Drexel University, priority 2012, dated 2016):
Values joined by “and” are separate entries in the source; they are usually repeats but may differ in a detail not shown here. Equal values may be shown once.

Tests used:
Format in all cases: cell-based, human
[1] = test system: MDA-MB-468 (GFP-LC3) cells; assay: GFP-LC3 punctae (autophagosome formation) microscopy assay; details: for punctae per cell / mean number of punctae per cell: 24 hours; for autophagosomes per cell / GFP-LC3 punctae per cell: 10 μM for 20 hours
MDA-MB-468 cells [2] = assay: Cell size by flow cytometry (mean FSC-H, G1 phase); details: 10 μM
Protocol: FIG. 11 is a graph illustrating decrease in MDAMB468 cell size associated with the Sigma1 antagonist treatment. MDA-MB-468 cells were treated for 24 hours with DMSO (control), 10 μM IPAG (antagonist), or 10 μM PRE084 (agonist). Cell size was quantitated by flow cytometry, using a Becton Dickinson FACS Calibur flow cytometer with Cell Quest software. The mean forward scatter height (FSC-H) of the G1-phase population was determined as a measure of relative cell size. Single cells were gated away from aggregated cells using an FL2-width versus FL-2 area dot plot. Mean FSC-H±S.E. was calculated from at least 4 independent determinations. For each FSC-H determination, FACS analysis was performed on 10,000 single cells. The mean FSC-H of DMSO (control) and PRE084 treated MDA-MB-468 measured 370±6 and 372±7, respectively, whereas the mean FSC-H of IPAG treated MDA-MB-468 cells was 323±4. ** P<0.01 for IPAG compared to DMSO and IPAG compared to PRE084.
FIG. 31A is a differential interference contrast (DIC) image of MDA-MB-468 breast adenocarcinoma cells treated for ˜20 hours with DMSO (drug vehicle control), 10 μM IPAG (antagonist) or 10 μM PRE084 (agonist). A twenty-micron bar is shown in each image. Data are presented as mean±SEM. FIG. 31B is a graph illustrating the finding that IPAG diminished the mean cell size (FSC-H) of MDA-MB-468 breast tumor cells in a time-responsive manner. The mean FSC-H of 370±5 at to decreased to 323±4 after 24 hours of IPAG treatment and to 267±2 after 48 hours of treatment. Two-tailed t-tests were performed to determine statistical significance. For IPAG treatment compared to control (DMSO) and Sigma agonists (SKF and PRE084), P=0.0002 at d1 and P=0.00013 at d2. Data were generated from three to five independent determinations for each time-point. […] T-47D were treated for 24 h with 1 and 10 μM IPAG, and mean FSC-H was measured. […] For FIGS. 31B-31E, the mean FSC-H was determined for each cell cycle population (i.e., G1, S, G2/M), and data is shown for G1 phase cells. […]

[3] = test system: T-47D breast adenocarcinoma cells; assay: Cell size by flow cytometry (mean FSC-H, G1 phase); details: 10 μM
Protocol: FIG. 31A is a differential interference contrast (DIC) image of MDA-MB-468 breast adenocarcinoma cells treated for ˜20 hours with DMSO (drug vehicle control), 10 μM IPAG (antagonist) or 10 μM PRE084 (agonist). A twenty-micron bar is shown in each image. Data are presented as mean±SEM. FIG. 31B is a graph illustrating the finding that IPAG diminished the mean cell size (FSC-H) of MDA-MB-468 breast tumor cells in a time-responsive manner. The mean FSC-H of 370±5 at to decreased to 323±4 after 24 hours of IPAG treatment and to 267±2 after 48 hours of treatment. Two-tailed t-tests were performed to determine statistical significance. For IPAG treatment compared to control (DMSO) and Sigma agonists (SKF and PRE084), P=0.0002 at d1 and P=0.00013 at d2. Data were generated from three to five independent determinations for each time-point. Flow cytometry was used to measure mean cell size (mean FSC-H) of T-47D breast adenocarcinoma cells. FIG. 31C is a bar graph illustrating T-47D cells treated for 24 hours with 10 μM indicated Sigma ligand. IPAG and BD 1047 (Sigma1 antagonists) diminished cell size from a mean FSC-H of 412±5 for control (DMSO) cells versus 341±7 and 381±8 for IPAG and BD1047 treated cells, respectively. […] Data represent 5 independent determinations (*P<0.05, ***P<0.001). FIG. 31D is a bar graph illustrating how IPAG (antagonist) decreases cell size in a dose responsive manner. T-47D were treated for 24 h with 1 and 10 μM IPAG, and mean FSC-H was measured. FIG. 31E is a graph illustrating that T47D cell size decreases over time. T-47D cells were treated for a total of 48 hours with 10 μM of the indicated Sigma ligands. […] Neither Sigma1 agonist, (+)-SKF10047 and PRE084, altered cell size. […] Two-tailed t-tests were performed to determine statistical significance. For IPAG treatment compared to control (DMSO) and Sigma1 agonists (SKF and PRE084), P=0.0002 at d1 and P<0.0001 at d2. For FIGS. 31B-31E, the mean FSC-H was determined for each cell cycle population (i.e., G1, S, G2/M), and data is shown for G1 phase cells. S and G2/M phase cells responded similarly (data not shown).

[4] = test system: T47D and MDA-MB-468 cells; assay: Cell cycle profile (G1, S, G2 phase cells); details: 24 hours; IPAG 1 μM (T47D) or 10 μM (MDA-MB-468); (+)-SKF-10047 10 μM
Protocol: FIG. 30, comprising FIGS. 30A-30B, illustrates that Sigma1 antagonists mediate cell cycle arrest. […] FIG. 30A is a graph illustrating the percentage of G1, S, and G2 phase cells in T47D cells treated for 24 hours with DMSO (vehicle control), 1 μM IPAG (Sigma1 antagonist), or 10 μM (+)SKF-10047 (Sigma1 agonist). FIG. 30 B is a graph illustrating the percentage of G1, S, and G2 phase cells in MDA-MB-468 cells treated for 24 hours with DMSO (vehicle control), 10 μM IPAG (Sigma1 antagonist), or 10 μM (+)-SKF-10047 (Sigma1 agonist).

MDA-MB-468 cells [5] = assay: Alamar blue assay of bortezomib potentiation; details: 10 μM IPAG with 0.01 μM bortezomib, 20 hours
Protocol: In vitro cell proliferation and cell death were quantified by Alamar blue reduction. To evaluate potentiation of proteasome inhibitor (bortezomib)-induced cell death by IPAG, MDA-MB-468 cells were treated for 20 hours with a 10 μM IPAG or 0.01 μM bortezomib alone or both drugs combined. Cell death was confirmed by trypan blue exclusion assay (data not shown). Data are representative of an experiment performed in triplicate.

N=C(Nc1ccc(I)cc1)NC1C2CC3CC(C2)CC1C3 (centres unmarked) [IPAG, 1-(4-iodophenyl)-3-(2-adamantyl)guanidine]
punctae per cell ([1]; 10 μM IPAG alone, 3-MA experiment): 23±2 punctae per cell | punctae per cell ([1]; 10 μM IPAG with addition of 3-MA (5 mM)): 12±1 punctae per cell | autophagosomes per cell ([1]; ATF4 knocked down): 5±1 autophagosomes per cell | autophagosomes per cell ([1]; IRE1α knocked down): 9±2 autophagosomes per cell | GFP-LC3 punctae per cell ([1]; Sigma1-knockdown cells): 10±2 punctae per cell | GFP-LC3 punctae per cell ([1]; control siRNA transfected cells): 28±4 punctae per cell | autophagosomes per cell ([1]; no UPR knockdown): 24±2 autophagosomes per cell | mean number of punctae per cell ([1]; 10 μM, knockdown of Beclin1): 6±1 punctae per cell | mean number of punctae per cell ([1]; 10 μM, without Beclin1 knockdown): 28±3 punctae per cell | time at which significant formation of autophagosomes was detected ([1]; 10 μM, GFP-LC3 punctae and LC3II immunoblot): 6 to 12 h | EC50 ([1]; Homo sapiens, MDA-MB-468, 24 hours of treatment, read-out: potency (EC50±S.E.M.) of autophagosome formation (GFP-LC3 punctae)): 9 ± 3 µM | autophagosome formation ([1]; IPAG alone, JNK inhibitor experiment): 23±2 | autophagosome formation ([1]; IPAG and JNK inhibitor SP600125): 7±1 | concentration at which precipitous cell death occurred ([1]; following 24 hours of treatment): 40 µM | mean FSC-H (relative cell size) (MDA-MB-468 cells [2]; 24 hours): 323±4 | mean FSC-H (relative cell size) (MDA-MB-468 cells [2]; 48 hours): 267±2 | mean FSC-H (relative cell size) ([3]; 24 hours, control 412±5): 341±7 and 331±3 | mean FSC-H (relative cell size) ([3]; 48 hours (d2)): 300±2 | cell cycle profile [4]: accumulation of breast adenocarcinoma cells in G1 phase of the cell cycle | potentiation of bortezomib-induced cell death (MDA-MB-468 cells [5]): potentiates bortezomib-induced adenocarcinoma cell death
